{"source": "patent US20240108559A1", "about": "“TOPICAL COMPOSITIONS CONTAINING SYNTHETIC ESTERS OF SINAPINIC ACID AND METHODS FOR TREATING KERATIN SURFACES” (ELC MANAGEMENT LLC, priority 2017, published 2024)", "key": {"[1]": {"experiment": "UV absorbance peak stability over time and temperature (UV visible spectroscopy)", "format": "physicochemical", "conditions": "1.4 and 14 ppm in 50/50 water and butylene glycol, time 0, week 1, 2, 4, 25°, 40°, 50° C., FIG. 1, FIG. 2", "procedure": "Sinapoyl malate and CAPE were evaluated for UV absorption. 50 and 100 ppm of each compound was dissolved in water and a second sample set of isopropanol. Additional samples of sinapyl malate and CAPE were prepared by dissolving 0.025% and 0.05% of each ingredient in a 50/50 mixture of water and butylene glycol. Further dilution to obtain a concentration of 1.4 ppm and 14 ppm was performed.\nThe samples were tested for UV absorption across the UV range by measuring with an Agilent 8453 UV visible spectroscopy system at wavelengths ranging across 200 to 450 nm at time 0, week 1, week 2, and week 4. The term “NA” means that a previously observed absorbance peak was no longer visible. The term “peak” means the two highest absorbance peaks in the UV spectrum. The term “valley” means the two lowest point between the absorbance peaks. In the case where there is only one peak or valley it means that the other, previously observed peak or valley was deteriorated at the time and temperature of the stability study. In the case where all peaks and valleys are indicated “NA” it means that the sample deteriorated entirely and no longer absorbed in the UV range at all."}}, "note": "Where a name gives a salt, the structure may show the parent alone."}
{"smiles": "O=C(/C=C/c1ccc(O)c(O)c1)OCCc1ccccc1", "note": "[CAPE, reference compound]", "values": [{"measurement": "stability of UV absorbance peaks over time and temperature", "setting": "[1]", "value": "much less stability over time and temperature"}]}
{"smiles": "COc1cc(/C=C/C(=O)OC(CC(=O)O)C(=O)O)cc(OC)c1O", "note": "(stereo not drawn) [Sinapoyl malate]", "values": [{"measurement": "stability of UV absorbance peaks over time and temperature", "setting": "[1]", "value": "more stable over time and temperature"}]}
{"smiles": "COc1cc(/C=C/C(=O)OC(CC(=O)O)C(=O)O)cc(OC)c1O", "note": "(stereo not drawn) (as salt: malate) [Sinapoyl malate]", "values": [{"measurement": "melting point", "value": "55 to 65", "unit": "°C"}]}
